In patent US20240299476A1, “USE OF A BIRNAVIRUS ALONE OR IN COMBINATION THERAPY FOR THE TREATMENT OF CANCER” (Probiogen AG, priority 2020, published 2024):

Assays:
[1] = test system: HEK293; assay: IBDV replication with or without 5 mM 2-aminopurin, TCID50 titration, HEK293; assay type: cell-based; conditions: HEK293 (normal RAS), IBDV MOI 0.05, 5 mM 2-AP versus none, 96 h
Protocol: (§1) FIG. 2: Enhancement of IBDV replication following treatment with 2-aminopurin in cell lines with normal RAS function (HEK293, AGE1.CR.PIX) but not in a RAS defective cell line (A549). Cells were infected with IBDV at MOI 0.05 either in the presence of 5 mM 2-aminopurin (2-AP) or without, cells together with supernatant were lysed by 3× freeze/thaw steps, cell debris was removed by centrifugation and the virus titer was quantified by TCID50.
(§2) Because susceptibility varies among cell lines, the positive impact of a RAS defect on IBDV replication has to be shown comparing cells of the same type with a specific propensity to replicate IBDV with normal and defect RAS function. Such RAS defect can be simulated in a cell line with normal RAS when cells are treated with 2-aminopurin. The drug prevents phosphorylation of protein kinase PKR that is prevented in cells with a RAS defect. The effect of 2-aminopurin on IBDV replication is studied in cell lines with (A549) and without a RAS mutation (AGE1.CR.PIX, HEK293).
(§3) HEK 293, A549, and AGE1.CR.pIX cells were infected with IBDV at MOI 0.05 either in the presence of 5 mM 2-aminopurin (2-AP) or without. […] Subsequently, the virus titer was quantified by TCID50 titration in different dilutions using adherent AGE1.CR.PIX cells. Based on the cytopathic effect (CPE) the TCID50 titer was evaluated 72 hours post infection (FIG. 2).

[2] = test system: A549; assay: IBDV replication with or without 5 mM 2-aminopurin, TCID50 titration, A549 (RAS mutant); assay type: cell-based, human; conditions: IBDV MOI 0.05, 5 mM 2-AP versus none, 96 h
Protocol: as §1, §2, §3

[3] = test system: AGE1.CR.PIX; assay: IBDV replication with or without 5 mM 2-aminopurin, TCID50 titration, AGE1.CR.PIX; assay type: cell-based, duck; conditions: AGE1.CR.PIX (normal RAS), IBDV MOI 0.05, 5 mM 2-AP versus none, 96 h
Protocol: as §1, §2, §3

[4] = test system: stage IV hilar cholangiocarcinoma; assay: Compassionate use case report: cholangiocarcinoma; assay type: in vivo, human; conditions: same patient before IBDV; agents added to ongoing low-dose chemotherapy; CA19-9 at diagnosis 2,729
From the text: A person approached the clinic for treatment of resistant stage IV hilar cholangiocarcinoma, CK7 positive, CK20 negative with confirmed peritoneal metastatic disease. During 2016 patient developed unexplained weight loss of approximately 10 kg, night pruritus. […] In January 2017 jaundice developed. Blood test on 19 Mar. […] Considering tumor location and potential involvement of both right and left lobes, no surgical procedure was considered, except liver transplantation. On 10 Apr. 2017 a biliary stent was introduced for drainage of rising levels of bilirubin >14 mg/dL. On 13 Apr. 2017 abdominal exploratory laparoscopy reviled peritoneal metastases and conventional chemotherapy was recommended but the patient preferred synergic combination of low doses of gemcitabine, leucovorin, fluorouracil, irinotecan and oxaliplatin administered over 48 h period every two weeks. After discovery of 2 mutations on BRCA1 (Exon 10/V9201) and BRCA2 (Exon 11/N2113S) it was decided to add PARP inhibitor and on 24 Jul. 2017 rucaparib was added and CA19-9 dropped to 287 IU/mL. CA19-9 increased following administration of nivolumab but stabilized at 250 IU/mL by adding abraxane, gemcitabine and oxaliplatin. Following addition of Erbitux and later on combinations of low-dose (1.0 mg/kg) ipilimumab and nivolumab (2 mg/kg) CA19-9 levels dropped from 369 IU/mL to normal levels. […]

| Molecule | Enhancement of IBDV replication (virus titer, TCID50) [1] | Effect on IBDV replication (virus titer, TCID50) [2] | Enhancement of IBDV replication (virus titer, TCID50) [3] | Tumor marker CA19-9 level after adding the agent (earlier therapy, patient history) [4] |
| --- | --- | --- | --- | --- |
| Nc1ncc2[nH]cnc2n1 [2-aminopurine] | approximately 10 fold | no benefit | approximately 10 fold |  |
| nivolumab |  |  |  | increased |
| CNCc1ccc(-c2[nH]c3cc(F)cc4c3c2CCNC4=O)cc1 [rucaparib] |  |  |  | 287 IU/mL |
